# Measured values reported in PMC5979466, “Allosteric Activation of GDP-Bound Ras Isoforms by Bisphenol Derivative Plasticisers” (International Journal of Molecular Sciences, 2018).
# Where two headings read alike, the source gives them in different places.
# Columns and labels:
# [1] = biological target: T1, K-Ras4B bound to GDP (Homo sapiens, UniProt P01116); test: NMR titration (1H-15N HSQC chemical shift perturbation) of GDP-bound K-Ras4B; type: binding
# T1 construct: made in house; host or cells: E. coli
# Experimental: The NMR titration experiments, resonance assignments, and data handling were performed as previously published. Spectra were acquired on Bruker DRX 600 and AVANCE III HD 700 spectrometers, except for ^19F NMR spectra that were recorded on a Bruker DPX 250 spectrometer at 235 MHz. The reference experiment for the competitive titration of ^14N SOS^cat and BPAF to ^15N-enriched GDP-bound K-Ras4B was acquired in the presence of 0.2 mM BPAF in PBS at pH 7.4.
# [2] = biological target: T2, K-Ras4B (Homo sapiens, UniProt P01116); set-up: made in house; host or cells: E. coli (given for K-Ras4B only); method as in PMID 26867649; settings: cited from earlier work
# [3] = test system: Hela cells; test: MTT cytotoxicity assay; type: cell-based; settings: Homo sapiens, Hela cells exposed for 72 hrs
# Experimental: Hela cells were used to determine IC50 values for different bisphenols. Therefore cells (1100 cells/well) were seeded in 96 well plates. 24 h after seeding cells were treated with individual bisphenols or corresponding DMSO in indicated concentrations up to 72 h. Subsequently, 10 μL of a MTT stock solution (5 mg/mL) were added to each well for 4 h. The mixture was removed carefully via pipetting, and the remaining formazan crystals formed were dissolved by 100 μL DMSO/10% SDS/0.01 M acetic acid for 15 min. The absorbance (570 nm and reference 620 nm) was determined using an absorbance reader and blank values were subtracted. Prism 6 (GraphPad Software, La Jolla, CA, USA) was used to calculate IC50 values.
# [4] = biological target: T3, GDP-bound K-Ras4B (Homo sapiens, UniProt P01116); test: Shift of Y157 amide NMR resonance towards active GppNHp-bound state; type: binding; settings: saturated ligand-protein complex
# T3 construct: made in house; host or cells: E. coli
# Experimental: (§1) The NMR titration experiments, resonance assignments, and data handling were performed as previously published. Spectra were acquired on Bruker DRX 600 and AVANCE III HD 700 spectrometers, except for ^19F NMR spectra that were recorded on a Bruker DPX 250 spectrometer at 235 MHz. The reference experiment for the competitive titration of ^14N SOS^cat and BPAF to ^15N-enriched GDP-bound K-Ras4B was acquired in the presence of 0.2 mM BPAF in PBS at pH 7.4. Upon titration of ^14N SOS^cat to a 0.4 mM sample of GDP-bound ^15N-enriched K-Ras4B, line broadening and/or disappearance of NMR resonances for GDP-loaded K-Ras4B bound to SOS^cat is observed probably due to rotational correlation effects of the approx. 80 kDa protein-protein complex. Line broadening can already be detected in 2D ^1H-^15N HSQC spectra of ^14N SOS^cat:^15N-enriched GDP-bound K-Ras4B at a molar ratio of 1:1, and this effect is more pronounced when extra SOS^cat is added to adjust a molar ratio of 1:2. Addition of an increasing amount of BPAF to the 1:2 ^15N-enriched K-Ras4B/^14N SOS^cat complex (1:2:0.5, 1:2:1, 1:2:4) recovers the backbone amide proton NMR resonances in 2D ^1H-^15N HSQC spectra. The acquired NMR spectrum is similar to the ^15N-enriched GDP-bound K-Ras4B:BPAF ^1H-^15N HSQC spectrum.
# [5] = test system: AKT kinase; test: Western blot of AKT phosphorylation (pAKT/total AKT); type: cell-based; settings: serum-starved HEK293T cells, BPAF 20 µM, BPNH2 33 µM
# Experimental: (§2) G-LISA Ras activation assay was performed as described before. Briefly, HEK293T cells were seeded in 10-cm dishes followed by overnight incubation and afterwards serum-starved for 16 h. Cells were then treated with individual bisphenols (BPAF [20 µM] and BPNH2 [33 µM]) or DMSO (control, Ctrl) in a time-dependent manner (1, 2, 4 h), subsequently lysed and the protein concentration was determined using Precision RedTM Advanced Protein Assay Reagent. Quantitative analysis of active Ras was performed with a G-LISA Ras activation assay (Cytoskeleton, Inc., Denver CO, USA) using 1 mg/mL of the sample. The signal intensity was determined by measuring absorbance at 490 nm using a microplate spectrophotometer. Additionally, these lysates were subjected to western blot analysis in order to determine the activation of ERK and AKT signalling. To test for statistical significance, a two-tailed Student’s t-test was applied using Prism version 5.0 (GraphPad Software, La Jolla, CA, USA).
# [6] = biological target: T4, GDP-bound K-Ras4B/SOS^cat complex (Homo sapiens, UniProt P01116); test: Competitive NMR titration of 15N K-Ras4B with 14N SOScat and ligand; type: binding; settings: BPAF added to 1:2 K-Ras4B/SOScat complex, recovery of resonances
# T4 construct: made in house; host or cells: E. coli (given for K-Ras4B only)
# Experimental: as §1
# [7] = test system: Ras; test: G-LISA Ras activation assay; type: cell-based; settings: serum-starved HEK293T cells, BPAF 20 µM, 1, 2, 4 h
# Experimental: as §2
# [8] = biological target: T2, K-Ras4B; test: GDI (guanine nucleotide dissociation inhibition) assay with mantGppNHp; type: biochemical; set-up: made in house; host or cells: E. coli
# Experimental: (§3) The SOS^cat assay was performed as described. Briefly, a solution of 1 µM Ras*mantGDP, 200 µM GDP was mixed with different concentrations of BPNH2 and incubated at 20 °C for 5–10 min. To prevent insolubility of the BPNH2, 5% v/v DMSO was applied. After adding 0.5 µM of SOS^cat, a fluorescence spectrum was recorded with a Perkin Elmer LS50B instrument applying an excitation wavelength of 366 nm and an emission wavelength of 442 nm. The kobs value describing the dissociation rate of the nucleotide is obtained for each BPNH2 concentration from a single exponential fit to the fluorescence time course. The GDI (guanine nucleotide dissociation inhibitor) assay is carried out similar to the SOS^cat assay: Instead of mantGDP, the non-hydrolysable GTP analogue mantGppNHp is used but no SOS^cat is added here. Again, the dissociation of the fluorescent nucleotide from Ras in the presence of various BPNH2 concentrations is detected by the decrease of fluorescence and the time dependence yields the kobs values. A plot of the kobs values versus BPNH2 concentration fitted by a binding isotherm yields the KD value of the BPNH2 complex (Figure 4 and Figure S7).
# Supporting Figure 7. GDI assay carried out in triplicate (black, red, green; upper panel): The GDI (guanine nucleotide dissociation inhibitor) assay is carried out similar to the SOScat assay: Instead of mantGDP, the non-hydrolysable GTP analogue mantGppNHp is used but no SOScat is added here. Again, the dissociation of the fluorescent nucleotide from Ras in the presence of various
# BPNH2 concentrations is detected by the decrease of fluorescence and the time dependence yields the kobs values. A plot of the kobs values versus BPNH2 concentration fitted by a binding isotherm yields the KD value of the BPNH2 complex (please also refer to […]
# MTT cytotoxicity assay (lower four panels): The IC50 values in Hela cells exposed for 72 hrs to BPs were determined as follows: 53.79 […]
# (1 picture or pasted object on this page, not shown here)
# [9] = biological target: T5, H-Ras (Homo sapiens, UniProt P01112); test: NMR-based titration of H-Ras; type: binding
# T5 construct: made in house; host or cells: E. coli
# [10] = biological target: T2, K-Ras4B; test: SOScat-catalysed guanine nucleotide exchange assay (mant-GDP fluorescence); type: biochemical; set-up: made in house; host or cells: E. coli (given for K-Ras4B only)
# Experimental: as §3
# [11] = biological target: T6, Rap-1A (Homo sapiens, UniProt P62834); test: NMR titration of Rap-1A; type: binding; settings: up to a BPAF concentration of 5 mM
# T6 construct: Rap1A comprising residues 1–170 were expressed in E. coli; made in house; host or cells: E. coli
# T6 sequence (P62834 1-170): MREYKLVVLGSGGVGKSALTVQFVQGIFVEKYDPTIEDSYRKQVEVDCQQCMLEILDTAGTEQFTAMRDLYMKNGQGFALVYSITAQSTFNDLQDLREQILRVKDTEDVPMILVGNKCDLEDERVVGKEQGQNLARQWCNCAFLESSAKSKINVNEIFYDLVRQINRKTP
# [12] = biological target: T7, N-Ras (1-170) (Homo sapiens, UniProt P01111); test: NMR-based titration of N-Ras; type: binding
# T7 construct: For N-Ras (1-170), we also observed a similar pattern of CSPs; made in house
# [13] = test system: ERK; test: Western blot of ERK phosphorylation (pERK/total ERK); type: cell-based; settings: serum-starved HEK293T cells, BPAF 20 µM, BPNH2 33 µM
# Experimental: as §2
# [14] = Solubility of the ligands in the NMR study; settings: NMR study samples
# [15] = biological target: T1, K-Ras4B bound to GDP; settings: NMR titration, cited from earlier work
# [16] = NMR titration, GDP-bound 15N-enriched K-Ras4B
compound,measurement,setting,value
"Oc1ccc(C(F)(F)F)cc1 [AFX, 4-(Trifluoromethyl)phenol, reference compound]",Kd,[1]; [16],> 50000 µM
"CC(C)(c1ccc(O)cc1)c1ccc(O)cc1 [BPA, 2,2-Bis(4-hydroxyphenyl)propane]",interference with GEF (Sos)-mediated nucleotide exchange from GDP to GTP,[2],can interfere
same,IC50,[3],53.8 µM
same,shift of Y157 amide resonance relative to the frequency in the active GppNHp-bound state,[4],49%
"Oc1ccc(C(c2ccc(O)cc2)(C(F)(F)F)C(F)(F)F)cc1 [BPAF, 2,2-Bis(4-hydroxyphenyl)hexafluoropropane]",level of phosphorylated AKT kinase (pAKT),[5],slightly elevated levels of phosphorylated AKT kinase (pAKT) after 2 h
same,antagonism of the interaction between GDP-bound K-Ras4B and SOScat,[6],can antagonise
same,Ras activity (G-LISA),[7],significant and time-dependent augmentation of Ras activity
same,IC50,[3],17.8 µM
same,GDI-effect (inhibition of nucleotide dissociation),[8],no or only a very small effect
same,Kd,[9],400 ± 20 µM
same,shift of Y157 amide resonance relative to the frequency in the active GppNHp-bound state,[4],58%
same,interference with the SOScat mediated nucleotide exchange,[10],interfere
same,Kd,[1]; [16],350 ± 20 µM
same,Kd,"[1]; calculated from six binding pocket residues (L6, V9, Y40, L56, T74, G75), Fig. S1",347 ± 5 µM
same,chemical shift perturbations (CSPs) on titration,[11],could not be detected
same,Kd,[12],770 ± 20 µM
same,level of ERK phosphorylation / Ras signalling via c-Raf kinase,[13],increased the level of ERK phosphorylation
"CC(c1ccccc1)(c1ccc(O)cc1)c1ccc(O)cc1 [BPAP, 4,4′-(1-Phenylethylidene)bisphenol]",solubility comment,[14],insoluble
"CCC(C)(c1ccc(O)cc1)c1ccc(O)cc1 [BPB, 2,2-Bis(4-hydroxyphenyl)butane]",Kd,[1]; [16],3600 µM
"Oc1ccc(C(c2ccccc2)(c2ccccc2)c2ccc(O)cc2)cc1 [BPBP, Bis(4-hydroxyphenyl)diphenylmethane]",solubility comment,[14],insoluble
"CC(c1ccc(O)cc1)c1ccc(O)cc1 [BPE, 1,1-Bis(4-hydroxyphenyl)ethane]",Kd,[1]; [16],6500 µM
"Oc1ccc(Cc2ccc(O)cc2)cc1 [BPF, 4,4′-Methylenediphenol]",Kd,[1]; [16],14000 µM
"Oc1ccc(C2(c3ccc(O)cc3)c3ccccc3-c3ccccc32)cc1 [BPFL, 4,4′-(9-Fluorenylidene)diphenol]",solubility comment,[14],insoluble
"Nc1cc(C(c2ccc(O)c(N)c2)(C(F)(F)F)C(F)(F)F)ccc1O [BPNH2, 2,2-Bis(3-amino-4-hydroxyphenyl)hexafluoropropane]",level of phosphorylated AKT kinase (pAKT),[5],clearly be detected already after 1 h
same,IC50,[3],33 µM
same,GDI-effect (inhibition of nucleotide dissociation),[8],significant GDI-effect
same,Kd,"[8]; mantGppNHp, no SOScat, triplicate, read-out: KD from GDI-assay",340 ± 20 µM
same,shift of Y157 amide resonance relative to the frequency in the active GppNHp-bound state,[4],approx. 64%
same,interference with the SOScat mediated nucleotide exchange,[10],interfere
same,Kd,"[10]; kobs of mGDP dissociation versus ligand concentration, 0.5 µM SOScat, 20 °C, 5% DMSO, read-out: KD from SOScat-assay",200 ± 100 µM
same,Kd,[1]; [16],400 µM
same,level of ERK phosphorylation / Ras signalling via c-Raf kinase,[13],failed to activate
"O=S(=O)(c1ccc(O)cc1)c1ccc(O)cc1 [BPS, 4,4′-Sulfonyldiphenol]",interference with GEF (Sos)-mediated nucleotide exchange from GDP to GTP,[2],cannot interfere
same,Kd,[15]; listed as S,6000 ± 700 µM
same,Kd,[15],5800 µM
same,IC50,[3],119 µM
same,shift of Y157 amide resonance relative to the frequency in the active GppNHp-bound state,[4],20%
